Measurements from patent US9663501B1, “Process for preparing a novel crystalline form of thifensulfuron-methyl and use of the same” (ROTAM AGROCHEM INTERNATIONAL COMPANY LIMITED, priority 2015, dated 2017).

Key:
[1] = Viscosity (stated in words, no method given); format: physicochemical
[2] = Cleanout test (residue in polyethylene bottles, acetonitrile extract, HPLC); format: physicochemical; settings: for Cleanout rating (concentration of thifensulfuron-methyl in the acetonitrile solution): lower rating = more effective cleanout
Description: The test was conducted by dispersing in water a sample to produce a concentration that is normally used when applying the herbicide: 25% thifensulfuron-methyl. The sample was added to tap water (300 mL) in a 400 mL beaker and magnetically stirred for 2 minutes. The mixture was then stirred for 2 minutes, whereupon the resulting dispersion was dispensed in three 100 mL aliquots to 4-oz (118 mL) polyethylene bottles. The bottles were capped, inverted twice and allowed to stand overnight.
After standing overnight, each individual bottle was inverted twice and the liquid contents were then poured out. Tap water (10 mL) was added and the bottle was inverted until all sediment was re-suspended, whereupon the contents were poured out. Tap water (100 mL) was added and the bottle was inverted twice and then allowed to stand undisturbed for 10 minutes. The bottle was inverted twice more and the contents were poured out. Acetonitrile (10 mL) was added to the bottle to extract any remaining material. The acetonitrile solution was analyzed by reversed-phase liquid chromatography with UV detection. The cleanout rating (the concentration of thifensulfuron-methyl herbicide in the acetonitrile solution) is reported in % in Table 6 below.

Row | SMILES | Viscosity, in words ([1]; listed as thifensulfuron-methyl in amorphous state) | Cleanout rating (concentration of thifensulfuron-methyl in the acetonitrile solution) ([2]; OD formulation) | Cleanout rating (concentration of thifensulfuron-methyl in the acetonitrile solution) ([2]; SG formulation) | Cleanout rating (concentration of thifensulfuron-methyl in the acetonitrile solution) ([2]; WG formulation) | Viscosity, in words ([1]; listed as crystalline modification I of thifensulfuron-methyl) | Cleanout properties, in words ([2]; compared with known amorphous thifensulfuron-methyl product)
1 | COC(=O)c1sccc1S(=O)(=O)NC(=O)Nc1nc(C)nc(OC)n1 [Amorphous thifensulfuron-methyl, methyl 3-(4-methoxy-6-methyl-1,3,5-triazin-2-ylcarbamoylsulfamoyl)thiophene-2-carboxylate, reference compound] | highly viscous | 26% | 10% | 13% |  | 
2 | COC(=O)c1sccc1S(=O)(=O)NC(=O)Nc1nc(C)nc(OC)n1 [Thifensulfuron-methyl, crystalline modification I] [methyl 3-(4-methoxy-6-methyl-1,3,5-triazin-2-ylcarbamoylsulfamoyl)thiophene-2-carboxylate] |  | 5% | 0.1% | 2% | significant decrease in its viscosity | markedly superior cleanout properties
